Experimental data reported in patent US9662404B2, “Compositions and methods for the delivery of molecules into live cells” (The Texas A&M University System, priority 2013, dated 2017).
Ends that are not written are not given here.

How the values were obtained:
HeLa cells [1] = test: Delivery of peptides inside live cells, internalization assessed by fluorescence microscopy; assay type: cell-based; details: for cellular localization of peptide fluorescence: 1 h incubation
Protocol: (§1) The TAT, dTAT and acTAT peptides were incubated for 1 h with several cell lines and internalization was assessed by fluorescence microscopy. […] See also FIG. 5. […] The cell lines HeLa, NIH 3T3, COLO 316 and HaCaT were incubated with 5 μM dTAT for 1 h, washed and imaged. […] After imaging, cells were incubated at 37° C. in a humidified atmosphere containing 5% CO2 for 24 h, washed and imaged again. […] Cell viability was assessed by exclusion of the cell-impermeable nuclear stain SYTOX® Blue at both 1 h and 24 h time point. […] Inverted monochrome (black=fluorescence signal, white-no signal) fluorescence images were made of HeLa cells incubated with 10 or 20 μM of TAT for 1 h.
Live cells from different lines (HeLa, HaCat, NIH 3T3) were grown in Dulbecco's […] (DMEM) (Fisher) supplemented with 10% fetal bovine serum (FBS) (Fisher) and kept at 37° C. in a humidified atmosphere containing 5% CO2. Cells were then seeded in 8-well dishes so that the cells were 80%-90% confluent after 48 h. […] The media (nrL-15) used for incubation lacks cysteine to avoid reduction of the disulfide bond of dTAT. Cells were then incubated with different concentrations of the acTAT, TAT, or dTAT at 37° C. for 1 h. […] Images were collected using a Rolera-MGI Plus back-illuminated EMCCD camera (Qimaging, Surrey, BC, Canada). Images were acquired using bright field imaging and three standard fluorescence filter sets: CFP (Ex=436±10 nm/Em=480±20 nm), RFP (Ex=560±20 nm/Em=630±35 nm), and FITC (Ex=488±10 nm/Em=520±20 nm). The fluorescence intensities of different cells were measured with the SlideBook 4.2 software (Olympus, Center Valley, Pa.) and the average fluorescence intensity was determined for each condition. It has been previously reported that CPPs labeled with fluorophores such as TMR can photosensitize membranes and cause endosomal leakage upon light irradiation. See, Srinivasan, D. et al., “Conjugation to the cell-penetrating peptide TAT potentiates the photodynamic effect of carboxytetramethylrhodamine,” PloS one 6:e17732 (2011) and Muthukrishnan, N., et al., “Synergy Between Cell-Penetrating Peptides and Singlet Oxygen Generators Leads to Efficient Photolysis of Membranes,” Photochemistry and Photobiology 89:625-630 (2012), each incorporated herein by reference in its entirety. […] First, all delivery experiments were performed under conditions of minimal light irradiation (dark room with dim red light). When fluorescence imaging is required, probes (e.g., SNAP surface 488, EGFP) are imaged before dTAT is, thereby minimizing the possible effect of light on endosomal release. For experiments performed with Cre and Hoxb4, cells are not imaged and not exposed to light (not at all for Hoxb4, 12 h after incubation for Cre).

[2] = system: HeLa, NIH 3T3, COLO 316 and HaCaT; details: 5 μM
Protocol: as §1
Live cells from different lines (HeLa, HaCat, NIH 3T3) were grown in Dulbecco's […] (DMEM) (Fisher) supplemented with 10% fetal bovine serum (FBS) (Fisher) and kept at 37° C. in a humidified atmosphere containing 5% CO2. […] Images were acquired using bright field imaging and three standard fluorescence filter sets: CFP (Ex=436±10 nm/Em=480±20 nm), RFP (Ex=560±20 nm/Em=630±35 nm), and FITC (Ex=488±10 nm/Em=520±20 nm). The fluorescence intensities of different cells were measured with the SlideBook 4.2 software (Olympus, Center Valley, Pa.) and the average fluorescence intensity was determined for each condition. […]

[3] = system: Dorsal root ganglion F11 (DRG-F11) neuronal cells; test: dTAT penetration into cells resistant to transfection; assay type: cell-based; details: 5 μM, 1 hour
Protocol: Dorsal root ganglion F11 (DRG-F11) neuronal cells are notoriously difficult to transfect. dTAT exposure was tested in DRG-F11 cells to determine whether the transfection difficulties also posed a barrier for dTAT. DRG-F11 cells were incubated for 1 hour with dTAT (5 μM).

[4] = system: HeLa, Neuro-2a and HDF cells; test: Cell proliferation, MTT assay in several cell types; assay type: cell-based; details: 5 μM, 1 h; up to 36 h after incubation
Protocol: FIG. 12 illustrates that cells treated with dTAT proliferate at a rate identical to untreated cells. HeLa, Neuro-2a and HDF cells were incubated with 5 μM dTAT for 1 h or left untreated. Proliferation was assessed using a MTT assay for up to 36 h after incubation (150,000 cells/experiment, experiments in triplicates, average and standard deviations represented).
In order to determine cells that had compromised plasma membranes, cells were treated with SYTOX® Green (SYTOX® Blue in some cases) and Hoechst (Invitrogen, Carlsbad, Calif.). SYTOX® dyes are cell-impermeable and stain the DNA of cells with compromised plasma membranes. The Hoechst dye is cell permeable and stains the DNA of all cells. Images were acquired using the green and blue filter. The green and blue images were used to count cells with a blue or green stained nucleus. Image J was used to count the dead (green) and total cells (blue). Cytotoxicity was determined from the ratio of SYTOX® Green positive cells/total number of cells. […] After the incubation each sample was mixed and the absorbance at 600 nm was measured. […] A second control consisted of cells treated with the delivery peptide but to which no MTT was added to subtract the contribution of TMR from the measured absorbance. The absorbance of the negative control was subtracted from all samples.

HeLa or NIH 3T3 cells = test: dTAT-mediated delivery of EGFP by co-incubation; assay type: cell-based; details: EGFP 10 μM and dTAT 5 μM, 1 h
Protocol: dTAT, DEAC-K9 and, SNAP-Surface® 488 are relatively small molecules. It was therefore addressed whether dTAT-mediated endosomal leakage could deliver large proteins into the cytosol of cells. For this assay, EGFP (26 kDa) was chosen as a model, since this protein is fluorescent only when properly folded. EGFP and dTAT were incubated for 1 h with cells and the protein distribution was examined by fluorescence. […] While protein degradation might take place during delivery, this assay establishes that a population of folded protein is delivered.
Images were acquired as described before.

HeLa cells [5] = test: Step-wise repeated delivery of DEAC-K9 and SNAP-Surface 488; assay type: cell-based; details: 5 μM dTAT + 5 μM DEAC-K9 1 h, then 5 μM dTAT + 5 μM SNAP-Surface 488 1 h
Protocol: To test this idea, the step-wise delivery of two different molecules (DEAC-K9 and SNAP-Surface® 488) was assessed. Cells were first incubated with dTAT (5 μM) and DEAC-K9 (5 μM) for 1 h. […] Twenty minutes later, cells were incubated with dTAT (5 μM) and SNAP-Surface® 488 (5 μM) for 1 h. […] Briefly, HeLa cells were first incubated with 5 μM dTAT and 5 μM DEAC-K9 for 1 h. Cells were then washed, incubated with 5 μM SNAP-Surface® 488 for 1 h and imaged.

With “(CK(TMR)TAT)2 (CK(TMR)RKKRRQRRRG; also: dimer) [dTAT, dimer of two CK(TMR)-TAT monomers linked via a disulfide bond between the N-terminal cysteine residues]” the “cells in which cytosolic delivery is observed” value (HeLa cells [1]; 5 μM) was “more than 95%”, the “concentration range with dramatic increase in cytosolic delivery of the peptide” value (HeLa cells [1]; HeLa cells, dTAT 1-5 μM) was 2 to 5 µM and the “cellular localization of peptide fluorescence” value (HeLa cells [1]; above 5 μM) was “distributed in the cytosol and nucleus”. For the same substance, the “cellular localization of peptide fluorescence” value (HeLa cells [1]; below 2 μM) was “punctate”, the “cellular localization of fluorescence signal” value ([2]; 1 h) was “in the cytosol and nucleus of cells” and the “plasma membrane integrity, SYTOX Blue staining” value ([2]; 1 h incubation, 1 h and 24 h time points) was “not stained with SYTOX® Blue”. For the same substance, the “penetration into the cytosol” value [3] was “penetrates into the cytosol of DRG-F11 cells”, the “proliferation of treated versus untreated cells” value [4] was “nearly identical proliferation patterns” and the “cells with EGFP distributed into the cytosol and nucleus” value (HeLa or NIH 3T3 cells) was “more than 90%”. For the same substance, the “toxicity during EGFP delivery” value (HeLa or NIH 3T3 cells) was “without observable toxicity” and the “repeatability of dTAT-mediated delivery” value (HeLa cells [5]) was “can be repeated”.
